Source: patent US20250051327A1, “MALT-1 MODULATORS” (EXSCIENTIA AI LIMITED, priority 2020, published 2025)
Counter-ions that a name gives are not always drawn. Like-named read-outs stand apart in the source and are kept apart here.

Legend:
[1] = target: Recombinant human MALT-1 (amino acids 340-824) (Homo sapiens (Human), UniProt Q9UDY8); test: MALT-1 inhibition assay (fluorogenic substrate Ac-LRSR-Rh110-DP); assay type: biochemical; conditions: recombinant human MALT-1, substrate Ac-LRSR-Rh110-DP
Outline: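 Reactions were started with fluorogenic substrate Ac-LRSR-Rh110-DP (10 μM final) against 3 nM enzyme and kept dark at 25° C for 60 minutes. IC50 values came from 4-parameter logistic fits of percent inhibition calculated from relative fluorescence units.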

[2] = tested on: IL-2 secretion by human effector memory T cells (TEM); test: Effector memory T cells IL-2 release assay; assay type: cell-based; conditions: human CD4+ effector memory T cells, CD3/CD28 bead stimulation, 24 h, read-out: CD4TC IL2 IC50
Outline: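 Human CD4+ effector memory T cells from healthy-donor buffy coats were stimulated with anti-CD3/CD28 Dynabeads and exposed to 10 semi-log compound doses (0.1% DMSO) for 24 h at 37 °C. Supernatant IL-2 was measured by HTRF, and IC50 came from a 4-parameter logistic fit to maximal IL-2. Viability was checked by flow cytometry.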

Chain of Recombinant human MALT-1 (amino acids 340-824) (Q9UDY8 340-824): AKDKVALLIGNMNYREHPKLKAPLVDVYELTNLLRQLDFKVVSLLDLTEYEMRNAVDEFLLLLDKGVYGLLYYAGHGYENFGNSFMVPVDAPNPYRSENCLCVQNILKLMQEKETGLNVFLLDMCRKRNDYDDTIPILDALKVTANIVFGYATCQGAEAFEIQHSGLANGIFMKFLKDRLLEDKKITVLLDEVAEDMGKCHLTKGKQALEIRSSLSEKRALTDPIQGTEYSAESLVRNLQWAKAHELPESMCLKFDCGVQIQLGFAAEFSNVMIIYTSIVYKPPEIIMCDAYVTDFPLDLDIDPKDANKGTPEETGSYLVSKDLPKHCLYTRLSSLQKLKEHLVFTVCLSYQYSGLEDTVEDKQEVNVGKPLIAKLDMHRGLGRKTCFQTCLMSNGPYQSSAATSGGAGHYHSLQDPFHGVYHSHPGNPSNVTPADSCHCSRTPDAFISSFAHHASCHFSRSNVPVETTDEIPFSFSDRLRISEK

| SMILES | IC50 [1] | IC50 ([2]; T-cell) | IC50 [2] |
| --- | --- | --- | --- |
| COc1ccc2ncc(Nc3ccc([C@@H](N(C)C(=O)[C@H]4CC[S@@](=N)(=O)CC4)C(F)(F)F)cc3)c([C@H](C)OC)c2n1 (relative stereo) [CPD0077186, (1 rel-r,4rel-s)-1-imino-N-methyl-1-oxo-N-[(1R)-2,2,2-trifluoro-1-[4-({6-methoxy-4-[(1 rel-S)-1-methoxyethyl]-1,5-naphthyridin-3-yl}amino)phenyl]ethyl]-1λ^6-thiane-4-carboxamide] | 126 nM | 158 nM | – |
| COc1ccc2ncc(Nc3ccc([C@@H](N(C)C(=O)[C@H]4CC[S@](=N)(=O)CC4)C(F)(F)F)cc3)c([C@H](C)OC)c2n1 (relative stereo) [CPD0077187, (1 rel-s,4rel-s)-1-imino-N-methyl-1-oxo-N-[(1R)-2,2,2-trifluoro-1-[4-({6-methoxy-4-[(1 rel-S)-1-methoxyethyl]-1,5-naphthyridin-3-yl}amino)phenyl]ethyl]-1λ^6-thiane-4-carboxamide] | 117 nM | 209 nM | – |
| COC(C)c1c(Nc2ccc([C@H](N(C)C(=O)C3CCS(=O)(=O)CC3)C(F)(F)F)cn2)cnc2ccc(Cl)nc12 (stereo in doubt) [CPD0019501, N-[(1S)-1-[6-({6-chloro-4-[(1 rel S)-1-methoxyethyl]-1,5-naphthyridin-3-yl}amino)pyridin-3-yl]-2,2,2-trifluoroethyl]-N-methyl-1,1-dioxo-1λ^6-thiane-4-carboxamide] | 348 nM | – | 380 nM |
| COc1ccc2ncc(Nc3ccc([C@H](N(C)C(=O)[C@H]4CC[S@@](=N)(=O)CC4)C(F)(F)F)cc3)c([C@H](C)OC)c2n1 (stereo in doubt) [CPD0073129, (1 rel-s,4rel-s)-1-imino-N-methyl-1-oxo-N-[(1S)-2,2,2-trifluoro-1-[4-({6-methoxy-4-[(1 rel-S)-1-methoxyethyl]-1,5-naphthyridin-3-yl}amino)phenyl]ethyl]-1λ^6-thiane-4-carboxamide] | 64 nM | 36 nM | – |
| COc1ccc2ncc(Nc3ccc([C@H](N(C)C(=O)[C@H]4CC[S@](=N)(=O)CC4)C(F)(F)F)cc3)c([C@H](C)OC)c2n1 (stereo in doubt) [CPD0073130, (1 rel-r,4rel-r)-1-imino-N-methyl-1-oxo-N-[(1S)-2,2,2-trifluoro-1-[4-({6-methoxy-4-[(1 rel-S)-1-methoxyethyl]-1,5-naphthyridin-3-yl}amino)phenyl]ethyl]-1λ^6-thiane-4-carboxamide] | 61 nM | 24 nM | – |
| COc1ccc2ncc(Nc3ccc([C@H](N(C)C(=O)C4CCS(=O)(=O)CC4)C(F)(F)F)cc3)c(C(C)OC)c2n1 (stereo partly drawn) [CPD0019079, N-methyl-1,1-dioxo-N-[(1S)-2,2,2-trifluoro-1-(4-{[6-methoxy-4-(1-methoxyethyl)-1,5-naphthyridin-3-yl]amino}phenyl)ethyl]-1λ^6-thiane-4-carboxamide] | 147 nM | 102 nM | – |
| O=C(Nc1cnc(-n2nccn2)c(Cl)c1)c1cnn(-c2cccc3ncccc23)c1NCCCCl [CPD0019183] | 464 nM | 10000 nM | – |

Further lines, with some results ahead:

| IC50 [1] | IC50 ([2]; T-cell) | SMILES | IC50 [2] |
| --- | --- | --- | --- |
| 68 nM | 210 nM | CNCC(=O)N1CC[C@@H](C(=O)N(C)[C@@H](c2ccc(N3CCCc4c3cnc3cc(Cl)nn43)cc2)C(F)(F)F)C1 (relative stereo) [CPD0075881, (3 rel-S)—N-[(1S)-1-[4-(4-chloro-2,3,7,10-tetrazatricyclo[7.4.0.0^2,6]trideca-1(9),3,5,7-tetraen-10-yl)phenyl]-2,2,2-trifluoro-ethyl]-N-methyl-1-[2-(methylamino)acetyl]pyrrolidine-3-carboxamide hydrochloride] | – |
| 64 nM | 40 nM | COc1ccc2ncc(Nc3ccc([C@H](N(C)C(=O)[C@H]4CCN(C(=O)CO)C4)C(F)(F)F)cc3)c([C@H](C)OC)c2n1 (relative stereo) [CPD0075882, (3 rel S)-1-(2-hydroxyacetyl)-N-methyl-N-[(1S)-2,2,2-trifluoro-1-[4-[[6-methoxy-4-[(1 rel S)-1-methoxyethyl]-1,5-naphthyridin-3-yl]amino]phenyl]ethyl]pyrrolidine-3-carboxamide] | – |
| 52 nM | 47 nM | COc1ccc2ncc(Nc3ccc([C@H](N(C)C(=O)[C@@H]4CCN(C(=O)CO)C4)C(F)(F)F)cc3)c([C@H](C)OC)c2n1 (relative stereo) [CPD0075883, (3 rel R)-1-(2-hydroxyacetyl)-N-methyl-N-[(1S)-2,2,2-trifluoro-1-[4-[[6-methoxy-4-[(1 rel S-1-methoxyethyl]-1,5-naphthyridin-3-yl]amino]phenyl]ethyl]pyrrolidine-3-carboxamide] | – |
| 68 nM | 82 nM | CC1CCN(c2ccc([C@H](N(C)C(=O)C3CCS(=O)(=O)CC3)C(F)(F)F)cc2)c2cnc3cc(Cl)nn3c21 (single isomer, unassigned) [CPD0021811] | – |
| 46 nM | 57 nM | CN(C(=O)[C@H]1CNC(=O)O1)[C@@H](c1ccc(N2CCCc3c2cnc2cc(Cl)nn32)cc1)C(F)(F)F (single isomer, unassigned) [CPD0075576] | – |
| 271 nM | 894 nM | COc1cncc2c1CCCN2c1ccc(C(N(C)C(=O)C2CCS(=O)(=O)CC2)C(F)(F)F)cc1 (stereo in doubt) [CPD0021939, N-methyl-1,1-dioxo-N-[(1S)-2,2,2-trifluoro-1-[4-(5-methoxy-3,4-dihydro-2H-1,7-naphthyridin-1-yl)phenyl]ethyl]thiane-4-carboxamide] | – |
| 53 nM | 250 nM | CN(C(=O)[C@H]1CNC(=O)C1)[C@@H](c1ccc(N2CCCc3c2cnc2cc(Cl)nn32)cc1)C(F)(F)F (stereo in doubt) [CPD0073564, (3rel-R)—N-[(1S)-1-(4-{4-chloro-2,3,7,10-tetraazatricyclo[7.4.0.0^2,6]trideca-1(9),3,5,7-tetraen-10-v}phenyl)-2,2,2-trifluoroethyl]-N-methyl-5-oxopyrrolidine-3-carboxamide] | – |
| 43 nM | 101 nM | CN(C(=O)[C@@H]1CNC(=O)C1)[C@@H](c1ccc(N2CCCc3c2cnc2cc(Cl)nn32)cc1)C(F)(F)F (stereo in doubt) [CPD0073565, (3rel-S)—N-[(1S)-1-(4-{4-chloro-2,3,7,10-tetraazatricyclo[7.4.0.0^2,6]trideca-1(9),3,5,7-tetraen-10-yl}phenyl)-2,2,2-trifluoroethyl]-N-methyl-5-oxopyrrolidine-3-carboxamide] | – |
| 598 nM | 386 nM | Cc1cn2ncc(Nc3ccc([C@H](N(C)C(=O)C4CCS(=O)(=O)CC4)C(F)(F)F)cc3)cc2n1 [CPD0018617, N-methyl-1,1-dioxo-N-[(1S)-2,2,2-trifluoro-1-[4-({2-methylimidazo[1,2-b]pyridazin-7-yl}amino)phenyl]ethyl]-1λ^6-thiane-4-carboxamide] | – |
| 361 nM | 190 nM | COc1ccc2ncc(Nc3ccc([C@H](N(C)C(=O)C4CCS(=O)(=O)CC4)C(F)(F)F)cc3)cc2n1 [CPD0018619, N-methyl-1,1-dioxo-N-[(1S)-2,2,2-trifluoro-1-[4-[(6-methoxy-1,5-naphthyridin-3-yl)amino]phenyl]ethyl]thiane-4-carboxamide] | – |
